From patent US5159080A, “Indole compounds, a process for their preparation, and pharmaceutical compositions containing them” (Madaus AG, priority 1988, dated 1992)
Where two headings read alike, the source gives them in different places.

Tests used:
[1] = tested on: guinea pig right auricles; test: Isolated, spontaneously beating right auricles, chronotropic effect; settings: Cavia porcellus, read-out: Maximum effect in % of initial value, RIGHT AURICLE CHRONOTROPIC; for Emax at 2 µg/mL: 2.0 μg/ml; for Emax at 4 µg/mL: 4.0 μg/ml; for Emax at 10 µg/mL: 10.0 μg/ml; for Emax at 20 µg/mL: 20.0 μg/ml
Procedure: (§1) The test process employed is described, inter alia, in: Staff of the Department of Pharmacology, University of Edinburgh (1970): Pharmacological Experiments on Isolated Preparation, Churchill Livingston, Edinburgh, London and New York, page 112.
(§2) Animals having a body weight of about 500 g, were used and were divided into groups of 4 animals each. The compounds to be tested were dissolved in tyrode solution/sodium chloride solution 50:50 v/v and the desired concentration adjusted in the bath liquid. The experiment was carried out in the known manner.

[2] = tested on: guinea pig left auricles; test: Isolated left auricles stimulated with 1 Hz, inotropic effect; settings: Cavia porcellus, read-out: Maximum effect in % of initial value, LEFT AURICLE INTROPIC; for Emax at 0.5 µg/mL: 0.5 μg/ml; for Emax at 2 µg/mL: 2.0 μg/ml; for Emax at 4 µg/mL: 4.0 μg/ml; for Emax at 10 µg/mL: 10.0 μg/ml; for Emax at 20 µg/mL: 20.0 μg/ml
Procedure: as §1, §2

[3] = Change of heart frequency and average blood pressure in narcotized rats (maximum effect over 2 hours); format: in vivo; settings: Rattus norvegicus, iv, maximum effect over 2 h, hemi-tartrate; for change in vivo at 5 mg/kg: 5 mg/kg i.v.; for change in vivo at 10 mg/kg: 10 mg/kg i.v.; for change in vivo at 2 mg/kg: 2 mg/kg i.v.; for change in vivo at 20 mg/kg: 20 mg/kg i.v.; for change in vivo at 1 mg/kg: 1 mg/kg i.v.
[4] = read-out: BLOOD PRESSURE CHANGE AVERAGE PRESSURE (%)
[5] = read-out: CHANGE OF HEART FREQUENCY (%)

Compound | Emax at 2 µg/mL [1] [%] | Emax at 4 µg/mL [1] [%] | Emax at 10 µg/mL [1] [%] | Emax at 2 µg/mL [2] [%] | Emax at 4 µg/mL [2] [%] | Emax at 10 µg/mL [2] [%] | change in vivo at 5 mg/kg [3, 4] [%] | change in vivo at 5 mg/kg [3, 5] [%] | change in vivo at 10 mg/kg [3, 4] [%] | change in vivo at 10 mg/kg [3, 5] [%] | change in vivo at 2 mg/kg [3, 4] [%] | change in vivo at 2 mg/kg [3, 5] [%] | further results
Cc1ccc2[nH]c3c(c2c1)C[C@@H]1CN(C)CC[C@@H]1CC3=O (relative stereo) [SI-WG 379] | -35 | -46 | -81 | 24 | 24 | 23 | -19.2 | -17.4 | -22 |  |  |  | Emax at 0.5 µg/mL ([1]; 0.5 μg/ml): -14%; Emax at 0.5 µg/mL [2]: 8%
CN1CC[C@@H]2CC(=O)c3[nH]c4ccc(Br)cc4c3C[C@@H]2C1 (relative stereo) [SI-WG 399] | -43 | -66 | -83 | 25 | 13 |  |  | -6.6 |  | -12.1 |  |  | inhibition at 0.5 µg/mL ([1]; 0.5 μg/ml): 22%
CN1CC[C@@H]2CC(=O)c3[nH]c4ccc(F)cc4c3C[C@@H]2C1 (relative stereo) [SI-WG 419] | -30 | -42 | -80 | 6 | -7 | -27 | -21.4 | -12.1 | -26.7 | -22.8 | -10.6 | -7.5 | Emax at 0.5 µg/mL ([1]; 0.5 μg/ml): -18%; Emax at 0.5 µg/mL [2]: 6%
O=C1C[C@H]2CCNC[C@H]2Cc2c1[nH]c1ccccc21 (relative stereo) [SI-WG 422] | -19.3 | -36.1 |  | -12.2 | -14.9 |  |  |  |  | -12.8 |  |  | Emax at 0.5 µg/mL ([1]; 0.5 μg/ml): -6.7%; Emax at 0.5 µg/mL [2]: -4.2%; change in vivo at 20 mg/kg [3, 4]: 21.8%; change in vivo at 20 mg/kg [3, 5]: -15.5%
COc1ccc2[nH]c3c(c2c1)C[C@@H]1CN(C)CC[C@@H]1CC3=O (relative stereo) [SI-WG 449] | -19 |  | -40 | 16 |  | 23 | -10 | -12 | -22 | -17 | -16 |  | Emax at 20 µg/mL [1]: -57%; Emax at 20 µg/mL [2]: 20%
CC(C)c1ccc2[nH]c3c(c2c1)C[C@@H]1CN(C)CC[C@@H]1CC3=O (relative stereo) [SI-WG 454] | -26.4 |  | -65.1 | -7.9 |  | -11.4 | -7.4 | -20.3 |  |  | -6.8 | -9 | Emax at 20 µg/mL [1]: -72.7%; Emax at 20 µg/mL [2]: -33.3%; change in vivo at 1 mg/kg [3, 4]: -4.8%; change in vivo at 1 mg/kg [3, 5]: -7.6%
CCCN1CC[C@@H]2CC(=O)c3[nH]c4ccccc4c3C[C@@H]2C1 (relative stereo) [SI-WG 533] | -15.9 | -26 | -34.1 | 11.1 | 18.1 | 17 | -20.1 | -9.7 | -22.7 | -17.9 |  |  | change in vivo at 20 mg/kg [3, 4]: -37.4%; change in vivo at 20 mg/kg [3, 5]: -19.8%
CN1CC[C@@H]2CC(=O)c3[nH]c4cc5c(cc4c3C[C@@H]2C1)OCO5 (relative stereo) [SI-WG 562] | -11.3 | -15.7 | -31.8 | -4.1 | -6 | -7.4 | -9.4 |  | -12.4 | -6 | -3.4 |  | 
CN1CC[C@@H]2CC(=O)c3[nH]c4ccc(O)cc4c3C[C@@H]2C1 (relative stereo) [SI-WG 571, 1.3.4.4a,5,7,12, 12a-octahydro-10-hydroxy-2-methyl-2H-pyrido[3',4':4,5] cyclohept [1,2-b] indol-6-one] | -3.1 | -8.4 | -9.1 |  | -3.9 | -11.4 |  |  | -14.1 | -11.6 |  | -1.4 | 
CN1CC[C@@H]2CC(=O)c3[nH]c4ccc(C(C)(C)C)cc4c3C[C@@H]2C1 (relative stereo) [SI-WG 578] | -19.4 | -28.1 | -52.9 | -3.6 | -12.1 | -10.9 | 2 | -10.2 |  |  |  | -6.2 | 
COc1cccc2c3c([nH]c12)C(=O)C[C@H]1CCN(C)C[C@H]1C3 (relative stereo) [SI-WG 583] | -16.1 | -23.7 | -30.3 |  | -5.1 | -14.9 | -11.7 | -10 | -12 | -11.2 | 2.3 | -3.4 | 
COc1cc2[nH]c3c(c2c(OC)c1OC)C[C@@H]1CN(C)CC[C@@H]1CC3=O (relative stereo) [SI-WG 587] |  | -10.4 | -13.9 |  | 14.9 | 29.4 | 12.2 |  | 11.6 | -4.8 |  |  | Emax at 20 µg/mL [1]: -19.8%; Emax at 20 µg/mL [2]: 31.8%
CN1CC[C@@H]2CC(=O)c3c(c4ccccc4n3C)C[C@@H]2C1 (relative stereo) [SI-WG 591] | -20 | -31.9 | -43.9 | 11.8 | 12 | 27.4 |  |  |  |  |  |  | 
CN1CC[C@@H]2CC(=O)c3[nH]c4ccc(C#N)cc4c3C[C@@H]2C1 (relative stereo) [SI-WG 600] | -25.2 | -32.7 | -49.1 | 12.4 | 23 | 30 | -6 | -8.9 | 4.8 | -9.4 | 9.5 |  | 
CC(=O)Nc1ccc2[nH]c3c(c2c1)C[C@@H]1CN(C)CC[C@@H]1CC3=O (relative stereo) [SI-WG 604] |  |  | -10.2 |  |  | 9.8 |  |  | -10.7 |  |  |  | Emax at 20 µg/mL [1]: -15.6%; Emax at 60 µg/mL ([1]; 60.0 μg/ml): -24.7%; Emax at 20 µg/mL [2]: 8.2%; Emax at 60 µg/mL ([2]; 60.0 μg/ml): 13.8%; change in vivo at 20 mg/kg [3, 4]: -15.6%
CN1CC[C@@H]2CC(=O)c3[nH]c4c(O)cccc4c3C[C@@H]2C1 (relative stereo) [SI-WG 625] | -13.8 | -17.4 | -26.3 |  | -4.7 | -8.9 | -9.4 | -8.4 |  |  |  |  | 
